According to publication PMC6696208, “Antityrosinase, Antioxidant, and Cytotoxic Activities of Phytochemical Constituents from Manilkara zapota L. Bark” (Molecules, 2019):
Values joined by “and” are separate entries in the source; they are usually repeats but may differ in a detail not shown here. Equal values may be shown once. Read-outs that look alike come from different tables or passages of the source. Marks after values point to notes of the source that are not given here.

Experiments:
[1] = tested on: WI-38 human diploid lung fibroblast; assay: MTT cytotoxicity assay, WI-38 normal cell line; assay type: cell-based; conditions: 72 h
Method: (§1) Cytotoxic activity was evaluated in vitro using the microtitration colorimetric method of MTT reduction. In this study, five human carcinoma cell lines were used, including BT474 (ATCC® HTB20^TM), Chago-K1 (National Cancer Institute, Thailand), HepG2 (ATCC® HB8065^TM), KATO-III (ATCC® HTB103^TM), and SW620 (ATCC® CCL227^TM). Additionally, human diploid lung fibroblast (WI-38, ATCC® CCL75^TM) was used as the normal cell line for comparison with the carcinoma cell lines. The culturing of these cell lines was derived in complete medium, including Roswell Park Memorial Institute medium (RPMI-1640), fetal bovine serum (5%, v/v), 25 mM of 4-(2-hydroxyethyl)-1-piperazineethanesulfonic acid (HEPES), sodium bicarbonate (0.25%, w/v), and kanamycin (100 μg/mL). Doxorubicin was used as a positive control. Each well plate contained 198 μL of culture medium of cell lines and was incubated with 5% CO2 atmosphere for 24 h at 37 °C. Then, the culture cells were treated with 2 μL/well of the sample and incubated for 72 h at 37 °C. MTT solution (2 μL, 5 mg/mL in normal saline) was added into each well, and the plates were incubated for an additional 4 h. The supernatant was aspirated out. After that, a mixture of 25 μL of 0.1 M glycine and 150 μL of DMSO was added. The plates were shaken to dissolve the purple-blue crystal of formazan. Then, the absorbance was determined by a microplate reader at 540 nm. The relative cell survival as a percentage of the control (DMSO), which was set at 100%, was calculated using the following formula:(5) The cell survival (%)=[As/Ac] × 100. where As is the absorbance of the test sample and Ac is the absorbance of […].

[2] = tested on: BT474 breast carcinoma cell line; assay: MTT cytotoxicity assay, BT474; assay type: cell-based; conditions: Homo sapiens, BT-474, 72 h
Method: as §1

[3] = tested on: KATO-III gastric carcinoma cell line; assay: MTT cytotoxicity assay, KATO-III; assay type: cell-based; conditions: Homo sapiens, 72 h
Method: as §1

[4] = tested on: Chago-K1 lung bronchus carcinoma cell line; assay: MTT cytotoxicity assay, Chago-K1; assay type: cell-based; conditions: Homo sapiens, ChaGo-K-1, 72 h
Method: as §1

[5] = tested on: SW620 colon carcinoma cell line; assay: MTT cytotoxicity assay, SW620; assay type: cell-based; conditions: Homo sapiens, SW-620, 72 h
Method: as §1

[6] = tested on: HepG2 liver carcinoma cell line; assay: MTT cytotoxicity assay, HepG2; assay type: cell-based; conditions: Homo sapiens, 72 h
Method: as §1

Mushroom tyrosinase [7] = target: T1, Mushroom tyrosinase (Agaricus bisporus, UniProt C7FF04); assay: Kinetic analysis of tyrosinase inhibition, monophenolase activity (Lineweaver-Burk plots); assay type: biochemical; conditions: L-tyrosine 0-200 μM, samples 20-1000 μM
Method: (§2) The kinetic analysis of tyrosinase inhibitory activity was performed with respect to both monophenolase and diphenolase activities. The concentration ranges of the samples were 20–1000 μM. Both L-tyrosine and L-DOPA were concentrated at 0, 25, 50, 100, and 200 μM, respectively. The inhibitory kinetics of the samples were analyzed using Lineweaver–Burk plots.

[8] = DPPH radical scavenging assay; conditions: mean ± SD of three replicates
Method: The DPPH radical scavenging activity was determined by a modified method based on a previously described procedure. Briefly, a solution containing 50 µL of sample (100 mg/mL) was dissolved in DMSO/ethanol (1:4 v/v) and 150 µL of 0.05 M DPPH solution in methanol. Then, the reaction mixture was mixed and was incubated in the dark for 30 min at 37 °C. The absorbance of the reaction mixture was measured at 517 nm. Trolox was used as a positive control. The DPPH scavenging effect was calculated according to the following equation:(3) DPPH radical scavenging activity (%)=[1−(As−Ab)/Ad]× 100. where As is the absorbance of the sample mixed with DPPH solution, Ab is the absorbance of the sample without DPPH solution, and Ad is the absorbance of DPPH solution without the sample.

[9] = FRAP assay (ferric reducing antioxidant power); conditions: FRAP value, expressed as ferrous sulphate equivalent, mean ± SD of three replicates
Method: FRAP assay was conducted using a modified version of a method originally reported in an earlier study. The FRAP reagent contained 25 mL of 0.3 M acetate buffer (pH 3.6), 2.5 mL of 20 mM ferric chloride solution, and 2.5 mL of 10 mM 2,4,6-tris(2-pyridyl)-1,3,5-triazine and was brought to a final volume of 50 mL using 40 mM HCl solution. Then, the FRAP reagent was put into a water bath for 30 min at 50 °C. Next, 600 μL of FRAP reagent was added to 25 μL of the sample (100 mg/mL). The absorbance was recorded at 595 nm after 4 min of incubation using a spectrophotometer. Trolox was used as a positive control. The ferric reducing capacity was expressed as a ferrous sulphate equivalent.

[10] = ABTS radical scavenging assay; conditions: mean ± SD of three replicates
Method: The ABTS radical scavenging capacity was determined using a modified version of a previously described procedure. The stock solution included 100 mL of 7.0 mM ABTS solution in methanol and 100 mL of 2.4 mM aqueous solution of potassium persulfate. Then, the reaction mixture was left in the dark for 14 h at 37 °C. The solution of 1 mL of ABTS solution was diluted with 60 mL of absolute ethanol to determine an absorbance of 0.700 ± 0.001 units at 734 nm using a spectrophotometer. Next, 500 µL of the sample (100 mg/mL) was reacted with 500 µL of ABTS solution and the absorbance was measured at 734 nm after 7 min of incubation using a spectrophotometer. The results were compared with Trolox as a standard, and the percentage of scavenging activity was calculated according to the following equation:(4) ABTS radical scavenging activity (%)=[(Ac−As)/Ac]×100. where Ac is the absorbance of ABTS radicals with ethanol and As is the absorbance of ABTS radicals with the test sample or positive control.

Mushroom tyrosinase [11] = target: T1, Mushroom tyrosinase; assay: Kinetic analysis of tyrosinase inhibition, diphenolase activity (Lineweaver-Burk plots); assay type: biochemical; conditions: L-DOPA 0-200 μM, samples 20-1000 μM
Method: as §2

[12] = design: method as in PMID 30364385; conditions: read-out: IC50 for ABTS; cited from earlier work
[13] = design: method as in PMID 30364385; conditions: read-out: IC50 for DPPH; cited from earlier work
tyrosinase = target: tyrosinase; design: method as in PMID 30364385; conditions: L-DOPA as substrate; read-out: IC50, antityrosinase; cited from earlier work

T1 sequence (G1K3P4 entry or part of it): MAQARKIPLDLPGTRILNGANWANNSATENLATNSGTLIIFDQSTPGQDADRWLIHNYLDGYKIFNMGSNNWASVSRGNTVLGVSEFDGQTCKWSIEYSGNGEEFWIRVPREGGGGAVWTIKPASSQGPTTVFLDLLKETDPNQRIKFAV
T1 sequence (C7FF04 1-392): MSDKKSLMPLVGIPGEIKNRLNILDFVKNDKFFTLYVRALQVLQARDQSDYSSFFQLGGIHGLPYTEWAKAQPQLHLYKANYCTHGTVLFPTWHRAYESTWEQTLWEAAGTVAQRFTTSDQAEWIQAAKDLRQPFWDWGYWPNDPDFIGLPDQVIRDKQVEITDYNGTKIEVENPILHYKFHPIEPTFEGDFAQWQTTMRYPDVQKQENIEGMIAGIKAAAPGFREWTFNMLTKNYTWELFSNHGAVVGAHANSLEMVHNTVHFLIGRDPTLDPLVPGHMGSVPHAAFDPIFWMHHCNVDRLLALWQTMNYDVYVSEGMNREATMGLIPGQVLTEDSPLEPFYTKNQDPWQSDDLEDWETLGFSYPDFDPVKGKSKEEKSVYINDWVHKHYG

Structure (SMILES) | IC50 [1] [µM] | IC50 [2] [µM] | IC50 [3] [µM] | IC50 [4] [µM] | IC50 [5] [µM] | IC50 [6] [µM] | Type of inhibition, monophenolase activity (Mushroom tyrosinase [7]) | IC50 [8] [µM] | FRAP [9] | IC50 [10] [µM] | Type of inhibition, diphenolase activity (Mushroom tyrosinase [11]) | IC50 [12] [µM] | IC50 [13] [µM] | IC50 (tyrosinase) [µM] | FRAP ([9]; listed as 6-hydroxyflavanone (3)) [µM] | FRAP ([9]; listed as (+)-dihydrokaempferol (4)) [µM] | melting point [°C]
COc1cccc2c1C(=O)c1c(O)c3c(c(O)c1C2=O)C[C@@](O)(C(=O)CO)C[C@@H]3O[C@H]1C[C@H](N)[C@H](O)[C@H](C)O1 [Doxorubicin, reference compound] | > 184 | 1.21 ± 0.2 | 1.78 ± 0.83 | 1.58 ± 0.4 | 1.82 ± 0.39 | 2.7 ± 0.83 | – | – | – | – | – | – | – | – | – | – | –
CC1(C)CC[C@]2(C)CC=C3[C@]4(C)CC[C@H]5C(C)(C)[C@@H](O)CC[C@]5(C)[C@H]4CC[C@@]3(C)[C@@H]2C1 [Taraxerol (6), taraxerol] | > 235 | > 235 | > 235 | > 235 | > 235 | > 235 | noncompetitive | 16.3 ± 0.33 | 1.46 ± 0.11 ^a μM | 630.84 ± 0.54 | uncompetitive | – | – | – | – | – | –
O=C1c2c(O)cc(O)cc2O[C@H](c2cc(O)c(O)c(O)c2)[C@H]1O [dihydromyricetin] | – | – | – | – | – | – | – | – | – | – | – | 3.41 | 12.4 | 3.33 | – | – | –
O=C1CC(c2ccccc2)Oc2ccc(O)cc21 (stereo not drawn) [6-Hydroxyflavanone (3), 6-hydroxyflavanone] | > 416 | 86.16 ± 0.45 | 88.8 ± 3.7 | 57.7 ± 1.08 | 82.8 ± 1.33 | 65.8 ± 2.37 | competitive | 3.21 ± 0.7 | 4.12 ± 0.12 ^c μM | 225.5 ± 0.95 | competitive | – | – | – | 4.12 ± 0.12 | – | –
O=C1c2c(O)cc(O)cc2O[C@H](c2ccc(O)cc2)[C@H]1O [(+)-Dihydrokaempferol (4), (+)-dihydrokaempferol] | > 347 | 11.7 ± 0.42 | 39.79 ± 0.38 | 12.3 ± 0.73 | 41.1 ± 1.08 | 13.7 ± 0.38 | competitive | 2.21 ± 0.77 | 6.23 ± 0.10 ^d μM | 214.8 ± 0.51 | competitive | – | – | – | – | 6.23 ± 0.10 | –
C=C(C)[C@@H]1CC[C@]2(C)CC[C@]3(C)C(CCC4[C@@]5(C)CCC(OC(C)=O)C(C)(C)C5CC[C@]43C)C12 (stereo partly drawn) [Lupeol acetate (8), lupeol acetate] | > 213 | 60.2 ± 0.9 | 136.7 ± 0.66 | 199.9 ± 0.3 | 182.7 ± 1.51 | > 213 | mixed | 87.1 ± 0.31 | 1.28 ± 0.30 ^a μM | 669.62 ± 0.42 | uncompetitive | – | – | – | – | – | 210 to 212
CO[C@H]1CC[C@@]2(C)C(CC[C@@]3(C)C4=CC[C@]5(C)CCC(C)(C)CC5[C@@]4(C)CCC23)C1(C)C (stereo partly drawn) [Taraxerol methyl ether (1), taraxerol methyl ether] | > 227 | 185 ± 1.61 | > 227 | > 227 | > 227 | > 227 | noncompetitive | 77.31 ± 0.6 | 1.31 ± 0.16 ^a μM | 520.22 ± 0.3 | noncompetitive | – | – | – | – | – | 278 to 280
CC1(C)CC[C@]2(C)CC=C3[C@]4(C)CC[C@H]5C(C)(C)C(=O)CC[C@]5(C)[C@H]4CC[C@@]3(C)[C@@H]2C1 [Taraxerone (7), taraxerone] | > 234 | 19.2 ± 0.4 | 26.5 ± 0.57 | 26.8 ± 0.97 | > 234 | 20.4 ± 1.43 | mixed | 10.2 ± 0.4 | 1.12 ± 0.13 ^a μM | 334.8 ± 0.99 | mixed | – | – | – | – | – | –
Cc1c(C)c2c(c(C)c1O)CCC(C)(C(=O)O)O2 (stereo not drawn) [Trolox, reference compound] | – | – | – | – | – | – | – | 1.92 ± 0.22 | 6.10 ± 0.28 μM and 6.10 ± 0.28 ^d μM | 188.4 ± 0.43 | – | – | – | – | – | – | –
O=C(O)c1ccc(O)c(O)c1 [3,4-Dihydroxybenzoic acid (5), 3,4-dihydroxybenzoic acid] | > 649 | 85.2 ± 3.96 | 507.5 ± 4.61 | 79.2 ± 4.02 | 591.4 ± 0.71 | 364.7 ± 2.27 | competitive | 4.71 ± 0.1 | 3.00 ± 0.40 ^b μM | 290.1 ± 0.95 | competitive | – | – | – | – | – | –
